# US7081349B1 (The General Hospital Corporation, priority 1994, dated 2006)
# Like-named read-outs stand apart in the source and are kept apart here.
# What was measured:
# [1] = target: T1, sheep Mel-1a receptor (Ovis aries, UniProt P48040); assay: Inhibition of forskolin-stimulated cAMP accumulation in NIH 3T3 cells stably transfected with sheep receptor cDNA; format: cell-based; conditions: for effect of pertussis toxin pretreatment on melatonin inhibition of forskolin-stimulated cAMP: PTX 100 ng/ml, 18 hours, 1 μM melatonin, 10 μM forskolin
# T1 construct: expressed in transfected cells
# Description: The 100% value is the mean cAMP value induced with 10 μM forskolin. […] Cells were preincubated with either vehicle or pertussis toxin for 18 hours (PTX: 100 ng/ml; pertussis toxin was purchased from List, Campbell, Calif.). […] Data are the mean plus standard deviation for 3 plates for each treatment.
# Transformed NIH 3T3 cells were plated on 35 mm dishes. After forty-eight hours, the cells were washed twice with DMEM, and then incubated with or without drugs (diluted in DMEM) for 10 min at 37° C. At the end of treatment, the medium was aspirated and 1 ml of 50 mM acetic acid was added. The cells were collected, transferred to an Eppendorf tube, boiled for 5 min, and centrifuged (13,750 rpm for 15 min). The supernatant was collected and assayed for cAMP. All determinations were done in triplicate. Cyclic AMP levels were determined in duplicate by radioimmunoassay by standard techniques.
# [2] = target: mouse Mel-1a receptor (Mus musculus, UniProt Q61184, F119L/I348L/K349P/L29M/L347F); conditions: COS-7 cells; comparable to sheep and human Mel-1a receptors
# [3] = system: human SCN; conditions: quantitative 125I-Mel autoradiography, Reppert et al. 1988; cited from earlier work
# [4] = target: T2, Xenopus high-affinity melatonin receptor (Xenopus laevis, UniProt P49219); assay: 125I-melatonin saturation and competition binding, whole COS-7 cells transiently expressing Xenopus receptor cDNA; parameters: expressed in transfected cells; host or cells: COS-7 cells, transient, pcDNAI
# T2 sequence (P49219 1-420): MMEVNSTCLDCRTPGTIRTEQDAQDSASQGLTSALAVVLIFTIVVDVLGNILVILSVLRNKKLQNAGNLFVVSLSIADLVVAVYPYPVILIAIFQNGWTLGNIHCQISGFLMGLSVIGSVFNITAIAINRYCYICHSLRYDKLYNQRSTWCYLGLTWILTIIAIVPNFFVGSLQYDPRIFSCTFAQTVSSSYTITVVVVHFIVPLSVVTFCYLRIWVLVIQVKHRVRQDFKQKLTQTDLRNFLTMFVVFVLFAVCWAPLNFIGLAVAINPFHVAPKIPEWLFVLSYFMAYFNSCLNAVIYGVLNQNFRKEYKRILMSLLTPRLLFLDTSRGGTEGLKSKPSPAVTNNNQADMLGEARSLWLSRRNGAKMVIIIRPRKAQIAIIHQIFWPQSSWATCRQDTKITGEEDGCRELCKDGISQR
# Description: Three days after transfection, medium was removed, the culture dishes were washed with PBS, and the cells were harvested. The cells were then pelleted (2500 rpm; 10 min, 4° C.) and stored at −80° C. Whole cell binding studies were performed by thawing the cells and resuspending them in binding buffer (50 mM Tris-HCl, pH 7.4, with 5 mM MgCl2) at a concentration of 456 μg protein 1 ml. […] Protein determinations were performed using the Pierce BCA Protein Assay (The Pierce Chemical Co., Rockford, Ill.). Binding data were analyzed by computer using the LIGAND Program of Munson and Rodbard ((1980) supra).
# (§1) The Bmax value using the whole cell binding assay was 67±7 fmol/mg of protein.
# [5] = target: T2, Xenopus high-affinity melatonin receptor; assay: Inhibition of forskolin-stimulated cAMP accumulation in CHO cells stably transfected with Xenopus receptor cDNA; format: cell-based; parameters: expressed in transfected cells
# Description: The 100% value is the mean cAMP value induced with 10 μM forskolin.
# Transformed CHO cells were plated on 35 mm culture dishes. After 48 hours, the cells were washed twice with Ham's F-12 (Life Technologies, Bethesda, Md.). […] Following treatment, the medium was aspirated and 1 ml of 50 mM acetic acid was added to the culture dish. The cells were collected, transferred to an Eppendorf tube, boiled for 5 min, and centrifuged (13,750 rpm for 15 min). The supernatant was collected and assayed for cAMP. All determinations were performed in triplicate. Cyclic AMP levels were determined in duplicate by radioimmunoassay (New England Nuclear, Boston, Mass.).
# [6] = target: T3, human Mel-1a receptor (Homo sapiens, UniProt P48039); assay: 125I-Mel saturation and competition binding, membranes of COS-1 cells transfected with human Mel-1a receptor cDNA; conditions: 100 pM 125I-Mel, mean ± SE of 3-5 experiments
# T3 construct: expressed in transfected cells; host or cells: COS-1 cells, transient, pcDNA3; crude membrane homogenates
# Description: (§2) The data shown are mean values of three to five experiments for each drug.
# (§3) Expression studies were performed as follows. COS-1 and NIH 3T3 cells were grown as monolayers in Dulbeccols modified Eagle's medium (DMEM) supplemented with 10% fetal calf serum, penicillin (50 U/ml), and streptomycin (50 μg/ml), in 5% CO2 at 37° C. […] Three days after transfection, medium was removed, and the dishes were washed with PBS. The cells were harvested in Hank's balanced salt solution and centrifuged (1400×g; 10 min, 4° C.). The resultant pellets were stored at −80° C. Crude membrane homogenates were prepared by thawing the pellets on ice and resuspending them in TME buffer (pH 7.4) consisting of 50 mM Tris base, 12.5 mM MgCl2, 1 mM EDTA, and supplemented with 10 μg/ml aprotinin and leupeptin, and 100 μM phenylmethylsulfonylfluoride. The cells were then homogenized using a dounce homogenizer and centrifuged (45,000×g; 15 min at 4° C.). The resulting pellet was resuspended with a dounce homogenizer in TME and frozen at […] in aliquots.
# (§4) Incubations were initiated by the addition of the membrane preparation and were conducted at 37° C. for 60 min. […] All determinations were done in either duplicate or triplicate.
# (§5) Protein measurements were performed by the method of Bradford (Bradford, M. M. (1976) Anal. Biochem. 72, 248-254), using bovine serum albumin as the standard.
# (§6) For comparison, binding and pharmacology of COS-1 cells transiently expressing the human Mel-1a receptor were assessed in parallel.
# [7] = target: T4, human Mel-1b receptor (Homo sapiens, UniProt P49286); assay: 125I-Mel saturation and competition binding, membranes of COS-1 cells transfected with human Mel-1b receptor cDNA; conditions: for Ki: 200 pM 125I-Mel, mean ± SE of 3-5 experiments; for Ratio (Mel-1a/Mel-1b): ratio of Ki values; for inhibition of specific 125I-Mel binding: micromolar concentrations, human Mel-1b
# T4 construct: expressed in transfected cells; host or cells: COS-1 cells, transient, pcDNA3; crude membrane homogenates
# T4 sequence (P49286 1-362): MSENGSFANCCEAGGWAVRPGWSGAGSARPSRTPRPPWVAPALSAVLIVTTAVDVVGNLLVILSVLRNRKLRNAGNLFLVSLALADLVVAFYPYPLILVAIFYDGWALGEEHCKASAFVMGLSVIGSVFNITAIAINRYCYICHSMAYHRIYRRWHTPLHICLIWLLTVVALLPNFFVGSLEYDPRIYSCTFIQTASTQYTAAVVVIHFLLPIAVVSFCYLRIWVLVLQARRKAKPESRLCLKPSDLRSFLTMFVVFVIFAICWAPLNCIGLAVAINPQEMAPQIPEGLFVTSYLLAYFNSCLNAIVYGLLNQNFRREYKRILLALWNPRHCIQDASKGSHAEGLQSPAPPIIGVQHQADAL
# Description: Inset: Scatchard plot of saturation data. […] Data shown are representative of five experiments.
# as §2
# Binding and pharmacological properties of the human Mel-1b receptor were examined by transiently expressing the receptor cDNA in COS-1 cells.
# as §3, §4, §5, §6
# [8] = target: T5, human high-affinity melatonin 1a receptor (Homo sapiens, UniProt P48039); assay: 125I-melatonin saturation and competition binding, COS-7 cells transfected with complete human Mel-1a receptor cDNA; conditions: 100 pM 125I-Mel, one-site model
# T5 construct: expressed in transfected cells; host or cells: COS-7 cells, transient, pcDNAI
# Text: (§7) Data shown are representative of three experiments. […] The data shown are representative of at least three experiments.
# [9] = target: T6, sheep high-affinity melatonin 1a receptor (Ovis aries, UniProt P48040); assay: 125I-melatonin saturation and competition binding, whole COS-7 cells transfected with sheep receptor cDNA
# T6 construct: expressed in transfected cells; host or cells: COS-7 cells, transient, pcDNAI, DEAE-dextran
# Text: as §7
# For ligand binding studies, the sheep receptor cDNA (SEQ ID NO:3) in pcDNAI was introduced into COS-7 cells using the DEAE-dextran method (Cullen, B. R. Methods Enzymol. (1987) 152:684-704). Approximately two to three days after transfection, cell culture medium was removed, the cultures dishes were washed with PBS, and the cells were harvested.
# The cells were then pelleted (2500 rpm; 10 min, 4° C.) and stored at −80° C. Whole cell binding studies were performed by thawing the cells and resuspending them in binding buffer (50 mM Tris-HCl, pH 7.4, with 5 mM MgCl2) at a concentration of 200-500 μg protein/ml. The cell suspension was incubated with ^125I-Mel with or without drugs in a total reaction volume of 0.2 ml binding buffer; the suspension as incubated in a shaker bath for 1.5 hr at 25° C. All determinations were done in either duplicate or triplicate. Protein measurements were performed using the Pierce BCA Protein Assay. Binding data were analyzed by computer using the LIGAND Program of Munson and Rodbard (1980).
# [10] = system: mock-transfected COS-7 cells; assay: 125I-melatonin binding in mock-transfected COS-7 cells
# Text: as §1
# [11] = 100 pM 125I-melatonin, COS-7 cells, Xenopus receptor, representative of three experiments, read-out: Ki, competition for 125I-melatonin binding
# [12] = 100 pM 125I-Mel, COS-7 cells, sheep receptor, one-site model, read-out: Ki, competition for 125I-Mel binding
# T5 sequence (P48039 whole entry): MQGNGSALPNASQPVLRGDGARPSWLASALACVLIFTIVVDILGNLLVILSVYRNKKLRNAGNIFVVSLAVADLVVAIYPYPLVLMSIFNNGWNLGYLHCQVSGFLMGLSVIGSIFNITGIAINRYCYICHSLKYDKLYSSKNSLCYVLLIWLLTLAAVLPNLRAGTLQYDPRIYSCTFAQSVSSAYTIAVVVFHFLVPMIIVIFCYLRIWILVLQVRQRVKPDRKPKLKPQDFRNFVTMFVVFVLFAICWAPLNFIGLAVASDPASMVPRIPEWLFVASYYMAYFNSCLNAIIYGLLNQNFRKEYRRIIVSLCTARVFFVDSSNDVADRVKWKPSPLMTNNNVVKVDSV
# T3 sequence (P48039 whole entry): as above
# T1 sequence (P48040 whole entry): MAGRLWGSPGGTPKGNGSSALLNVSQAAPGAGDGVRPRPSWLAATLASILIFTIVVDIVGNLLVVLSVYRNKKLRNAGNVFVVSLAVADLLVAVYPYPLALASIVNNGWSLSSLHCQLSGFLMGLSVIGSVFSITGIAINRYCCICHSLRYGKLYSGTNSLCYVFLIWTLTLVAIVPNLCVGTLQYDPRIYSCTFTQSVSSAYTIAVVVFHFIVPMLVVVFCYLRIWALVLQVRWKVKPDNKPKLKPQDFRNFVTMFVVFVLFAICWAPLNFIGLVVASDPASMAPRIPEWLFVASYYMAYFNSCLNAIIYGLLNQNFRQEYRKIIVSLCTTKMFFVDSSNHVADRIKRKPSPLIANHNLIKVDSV
# T6 sequence (P48040 whole entry): as above
# mouse Mel-1a receptor, sequence (Q61184 whole entry L29M/F119L/L347F/I348L/K349P): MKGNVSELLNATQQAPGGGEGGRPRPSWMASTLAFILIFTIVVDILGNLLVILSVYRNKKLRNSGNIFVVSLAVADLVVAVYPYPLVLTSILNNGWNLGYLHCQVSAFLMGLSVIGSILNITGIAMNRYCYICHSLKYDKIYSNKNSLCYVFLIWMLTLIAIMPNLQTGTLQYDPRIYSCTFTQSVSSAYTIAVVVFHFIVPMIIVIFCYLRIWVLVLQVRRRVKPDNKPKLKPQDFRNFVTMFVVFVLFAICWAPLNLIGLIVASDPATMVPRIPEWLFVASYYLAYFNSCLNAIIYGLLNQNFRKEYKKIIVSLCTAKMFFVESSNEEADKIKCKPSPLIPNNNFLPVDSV
compound,measurement,setting,value
COc1ccc2[nH]cc(CCNC(C)=O)c2c1 [melatonin],inhibition of forskolin-stimulated cAMP accumulation in vector-only cells,"[1]; melatonin 1 μM, NIH 3T3 cells with pcDNAI NEO lacking the sheep receptor cDNA",did not inhibit
same,effect on basal cAMP levels,"[1]; stably transfected NIH 3T3 lines, sheep receptor",did not alter basal cAMP levels
same,binding affinity,[2],high affinity
same,affinity,[3],high affinity
same,Ki,[4]; [11],1.3 nM
same,inhibition at 0.01 µM,"[5]; CHO, read-out: maximal inhibition of the mean forskolin-stimulated cAMP concentration",68%
same,IC50,"[5]; manual curve fitting of FIG. 12, 10 μM forskolin, CHO cells, Xenopus receptor",~0.8 nM
same,inhibition of forskolin-stimulated cAMP increase in vector-only cells,"[5]; melatonin 1×10^−6 M, CHO cells stably transfected with vector lacking the Xenopus cDNA",did not inhibit
same,effect on basal cAMP levels,"[5]; melatonin alone 1×10^−6 M, stably transfected CHO cells",not to alter basal cAMP levels
"CC(=O)NCCc1c[nH]c2ccc(O)cc12 [NAS, N-acetyl-5-hydroxytryptamine]",Ki,[6],986 ± 137 nM
same,Ki,[7],595 ± 127 nM
same,Ratio (Mel-1a/Mel-1b),[7],1.6
same,Ki,[8],170 nM
same,Ki,[4]; [11],2000 nM
same,Ki,[9]; [12],140 nM
COc1ccc2[nH]c(I)c(CCNC(C)=O)c2c1 [2-iodomelatonin],Ki,[4],0.11 nM
same,Ki,[9],0.037 nM
Pertussis toxin,effect of pertussis toxin pretreatment on melatonin inhibition of forskolin-stimulated cAMP,[1],completely abolished
same,effect of pertussis toxin pretreatment on melatonin inhibition of forskolin-stimulated cAMP,[1]; listed as pertussis toxin,blocks
"NCCc1c[nH]c2ccc(O)cc12 [5-HT, 5-hydroxytryptamine]",Ki,[6],> 10000 nM
same,inhibition of specific 125I-Mel binding,[7],did not inhibit
same,Ki,[8],> 100000 nM
same,affinity,[3],very low affinity
same,Ki,[4]; [11],> 100000 nM
same,Ki,[9]; [12],> 100000 nM
"COc1ccc2[nH]c(I)c(CCNC(C)=O)c2c1 [^125I-melatonin, 2-[^125I]-iodomelatonin]",Kd,"[4]; saturation 5 to 1280 pM, COS-7 cells, Xenopus receptor, n=3 experiments, read-out: Kd of 125I-melatonin (Scatchard analysis)",0.063 nM
same,Ki,"[9]; FIG. 14a inset, COS-7 cells, sheep receptor, representative experiment, read-out: Ki value for the sheep receptor from Scatchard plot of saturation data",0.036 nM
COc1cc2c(CCNC(C)=O)c[nH]c2cc1Cl [6-chloromelatonin],affinity,[3],high affinity
same,Ki,[4]; [11],3 nM
same,Ki,[9]; [12],0.25 nM
COc1cc2nc(N3CCN(C(=O)c4ccco4)CC3)nc(N)c2cc1OC [prazosin],inhibition of specific 125I-Mel binding,[7],did not inhibit
"COc1ccc2[nH]c([125I])c(CCNC(C)=O)c2c1 [^125I-melatonin, 2-[^125I]-iodomelatonin]",specific binding of 125I-melatonin,[10],No specific binding
COc1cc2c(CCNC(C)=O)c[nH]c2cc1O [6-hydroxymelatonin],Ki,[8],2 nM
same,Ki,[4]; [11],20 nM
same,Ki,[9]; [12],3 nM
COc1ccc2[nH]c(-c3ccccc3)c(CCNC(C)=O)c2c1 [2-phenylmelatonin],Ki,[6],0.21 ± 0.06 nM
same,Ki,[7],0.26 ± 0.06 nM
same,Ratio (Mel-1a/Mel-1b),[7],0.8
